We go through seven compounds from PubChem BioAssay AID1745844 (Carcinogenic Potency Database (CPDB), 2022).

Where “and” joins values, the source holds several entries; their conditions need not be identical. Identical values can stand only once. Calls of active or inactive are those of the source. The rule behind the calls is not given here.

This data set deals with rodent lifetime carcinogenesis bioassay, tumor incidence TD50. Briefly: carcinogenic potency in animals, long-term in vivo studies, CPDB compilation (AID 1745844).

A word on the TD50: it is the 50% point of the dose-response relation for the toxic effect studied. On to `CC(O)CN(CC(C)O)N=O` (centres undefined), for which the TD50 runs as follows: (rat, strain Fischer 344, females, in drinking water, site: esophagus, lesion: carcinoma, dosed 42 weeks, study length 55 weeks) 1.25 mg/kg/day; (rat, strain Fischer 344, females, in drinking water, site: esophagus, lesion: several types, types named in the paper, dosed 42 weeks, study length 55 weeks) 0.813 mg/kg/day; (rat, strain Fischer 344, females, in drinking water, site: nasal cavity, lesion: olfactory carcinoma, dosed 42 weeks, study length 55 weeks) 3.04 mg/kg/day; (rat, strain MRC-Wistar, males, by gavage, site: prostate, lesion: carcinoma, dosed 74 weeks, study length 74 weeks) 437 mg/kg/day; (rat, strain Wistar, males, in drinking water, site: liver, lesion: hemangioma, dosed 45 weeks, study length 52 weeks) 4.55 mg/kg/day; (rat, strain Wistar, males, in drinking water, site: liver, lesion: hepatocellular carcinoma, dosed 45 weeks, study length 52 weeks) 2.4 mg/kg/day. Further, the TD50 is 3.36 mg/kg/day (rat, strain Wistar, males, in drinking water, site: lung, lesion: adenocarcinoma, dosed 45 weeks, study length 52 weeks); 0.881 mg/kg/day (rat, strain Wistar, males, in drinking water, site: lung, lesion: adenoma, dosed 45 weeks, study length 52 weeks); 9.48 mg/kg/day (rat, strain Wistar, males, in drinking water, site: lung, lesion: carcinoma, combined glandular and squamous type, dosed 45 weeks, study length 52 weeks).

As for `CC=CCl`, the TD50 reads like this: (mouse, strain Ha/ICR, females, by gavage, site: forestomach, lesion: one or several types, types not named, dosed 89 weeks, study length 89 weeks) 5.05 mg/kg/day; (mouse, strain Ha/ICR, males, by gavage, site: forestomach, lesion: one or several types, types not named, dosed 89 weeks, study length 89 weeks) 16.7 mg/kg/day.

`c1ccncc1`: the TD50 by setting is: (mouse, strain B6C3F1, females, in drinking water, site: all sites, lesion: hemangioma + hemangiosarcoma, dosed 104 weeks, study length 104 weeks) 690 mg/kg/day; (mouse, strain B6C3F1, females, in drinking water, site: all sites, lesion: hemangioma, dosed 104 weeks, study length 104 weeks) 868 mg/kg/day; (mouse, strain B6C3F1, females, in drinking water, site: any site (literature study), lesion: several types, types named in the paper, dosed 104 weeks, study length 104 weeks) 338 mg/kg/day; (mouse, strain B6C3F1, females, in drinking water, site: liver, lesion: hepatoblastoma + hepatocellular carcinoma, dosed 104 weeks, study length 104 weeks) 27.2 mg/kg/day; (mouse, strain B6C3F1, females, in drinking water, site: liver, lesion: hepatoblastoma, dosed 104 weeks, study length 104 weeks) 132 mg/kg/day; (mouse, strain B6C3F1, females, in drinking water, site: liver, lesion: hepatocellular adenoma + hepatoblastoma + hepatocellular carcinoma, dosed 104 weeks, study length 104 weeks) 150 mg/kg/day. For the same compound, the TD50 was 41.9 mg/kg/day (mouse, strain B6C3F1, females, in drinking water, site: liver, lesion: hepatocellular adenoma, dosed 104 weeks, study length 104 weeks); 41.6 mg/kg/day (mouse, strain B6C3F1, females, in drinking water, site: liver, lesion: hepatocellular carcinoma, dosed 104 weeks, study length 104 weeks); 1990 mg/kg/day (mouse, strain B6C3F1, females, in drinking water, site: lung, lesion: alveolar/bronchiolar adenoma + alveolar/bronchiolar carcinoma, dosed 104 weeks, study length 104 weeks); 25700 mg/kg/day (mouse, strain B6C3F1, males, in drinking water, site: any site (literature study), lesion: several types, types named in the paper, dosed 103 weeks, study length 103 weeks); 22.1 mg/kg/day (mouse, strain B6C3F1, males, in drinking water, site: liver, lesion: hepatoblastoma + hepatocellular carcinoma, dosed 103 weeks, study length 103 weeks); 68.1 mg/kg/day (mouse, strain B6C3F1, males, in drinking water, site: liver, lesion: hepatoblastoma, dosed 103 weeks, study length 103 weeks). Moreover, the TD50 (mouse, strain B6C3F1, males, in drinking water, site: liver, lesion: hepatocellular adenoma + hepatoblastoma + hepatocellular carcinoma, dosed 103 weeks, study length 103 weeks) stood at 496 mg/kg/day; the TD50 (mouse, strain B6C3F1, males, in drinking water, site: liver, lesion: hepatocellular adenoma, dosed 103 weeks, study length 103 weeks) worked out at 488 mg/kg/day; the TD50 (mouse, strain B6C3F1, males, in drinking water, site: liver, lesion: hepatocellular carcinoma, dosed 103 weeks, study length 103 weeks) is 28.6 mg/kg/day; the TD50 (rat, strain Fischer 344, females, in drinking water, site: all sites, lesion: mononuclear-cell leukemia, dosed 104 weeks, study length 104 weeks) is 31.2 mg/kg/day; the TD50 (rat, strain Fischer 344, females, in drinking water, site: any site (literature study), lesion: several types, types named in the paper, dosed 104 weeks, study length 104 weeks) was determined as 32.9 mg/kg/day; the TD50 (rat, strain Fischer 344, males, in drinking water, site: any site (literature study), lesion: several types, types named in the paper, dosed 103 weeks, study length 103 weeks) was determined as 31 mg/kg/day. Moreover, the TD50 (rat, strain Fischer 344, males, in drinking water, site: kidney, lesion: tubule adenoma + tubule carcinoma, dosed 103 weeks, study length 103 weeks) is 67.3 mg/kg/day and 74.6 mg/kg/day; the TD50 (rat, strain Fischer 344, males, in drinking water, site: kidney, lesion: tubule adenoma, dosed 103 weeks, study length 103 weeks) was 73.7 mg/kg/day and 75.6 mg/kg/day; the TD50 (rat, strain Fischer 344, males, in drinking water, site: liver, lesion: hepatocellular adenoma + hepatoblastoma + hepatocellular carcinoma, dosed 103 weeks, study length 103 weeks) came out at 160 mg/kg/day; the TD50 (rat, strain Wistar, males, in drinking water, site: any site (literature study), lesion: several types, types named in the paper, dosed 103 weeks, study length 103 weeks) came to 7.14 mg/kg/day; the TD50 (rat, strain Wistar, males, in drinking water, site: testis, lesion: interstitial-cell adenoma, bilateral + interstitial-cell adenoma, dosed 103 weeks, study length 103 weeks) turned out to be 22.4 mg/kg/day; the TD50 (rat, strain Wistar, males, in drinking water, site: thyroid gland, lesion: follicular-cell adenoma, bilateral + follicular-cell adenoma, dosed 103 weeks, study length 103 weeks) came out at 38.4 mg/kg/day.

Turning to `CNc1ncnc2nc[nH]c12`, the carcinogen call is “negative (inactive)” (mouse, strain Swiss CD-1, females, in drinking water, site: liver, lesion: hepatocellular tumor, dosed 26 weeks, study length 104 weeks); “negative (inactive)” (mouse, strain Swiss CD-1, females, in drinking water, site: lung, lesion: one or several types, types not named, dosed 26 weeks, study length 104 weeks); “negative (inactive)” (mouse, strain Swiss CD-1, males, in drinking water, site: liver, lesion: hepatocellular tumor, dosed 26 weeks, study length 106 weeks); “negative (inactive)” (mouse, strain Swiss CD-1, males, in drinking water, site: lung, lesion: one or several types, types not named, dosed 26 weeks, study length 106 weeks).

Turning to `Cc1c2ccccc2c(C)c2c1ccc1ccccc12`, the TD50 (mouse, strain albino, females, in feed, site: forestomach, lesion: papilloma, dosed 60 weeks, study length 60 weeks) came to 0.287 mg/kg/day and the TD50 (mouse, strain albino, females, in feed, site: mesenteric intestine, lesion: angio-endothelioma, malignant, dosed 60 weeks, study length 60 weeks) was 0.084 mg/kg/day.

With `S=C(S)NCCNC(=S)S`, the carcinogen call was “negative (inactive)” (mouse, strain B6AKF1, females, oral dosing, site: any site (literature study), lesion: several types, types named in the paper, dosed 76 weeks, study length 76 weeks); “negative (inactive)” (mouse, strain B6AKF1, females, oral dosing, site: liver, lesion: hepatoma, dosed 76 weeks, study length 76 weeks); “negative (inactive)” (mouse, strain B6AKF1, females, oral dosing, site: lung, lesion: several types, types named in the paper, dosed 76 weeks, study length 76 weeks); “negative (inactive)” (mouse, strain B6AKF1, males, oral dosing, site: any site (literature study), lesion: several types, types named in the paper, dosed 76 weeks, study length 76 weeks); “negative (inactive)” (mouse, strain B6AKF1, males, oral dosing, site: liver, lesion: hepatoma, dosed 76 weeks, study length 76 weeks); “negative (inactive)” (mouse, strain B6AKF1, males, oral dosing, site: lung, lesion: adenoma, dosed 76 weeks, study length 76 weeks). Further, the carcinogen call is “negative (inactive)” (mouse, strain B6C3F1, females, oral dosing, site: any site (literature study), lesion: several types, types named in the paper, dosed 76 weeks, study length 76 weeks); “negative (inactive)” (mouse, strain B6C3F1, females, oral dosing, site: liver, lesion: hepatoma, dosed 76 weeks, study length 76 weeks); “negative (inactive)” (mouse, strain B6C3F1, females, oral dosing, site: lung, lesion: adenoma, dosed 76 weeks, study length 76 weeks); “negative (inactive)” (mouse, strain B6C3F1, males, oral dosing, site: any site (literature study), lesion: several types, types named in the paper, dosed 76 weeks, study length 76 weeks); “negative (inactive)” (mouse, strain B6C3F1, males, oral dosing, site: lung, lesion: adenoma, dosed 76 weeks, study length 76 weeks). Moreover, the TD50 (mouse, strain B6C3F1, males, oral dosing, site: liver, lesion: hepatoma, dosed 76 weeks, study length 76 weeks) is 866 mg/kg/day (inactive).

`Cc1c(COC(=O)[C@@H]2[C@H](/C=C(\Cl)C(F)(F)F)C2(C)C)cccc1-c1ccccc1`: where the note is “mouse, strain Swiss Webster, males, in feed, site: urinary bladder, lesion: mesenchymal neoplasm, dosed 86 weeks, study length 86 weeks”, the TD50 came to 286 mg/kg/day.
